In patent US20040138199A1, “Benzoxazines and derivatives thereof as therapeutic agents” (priority 2002, published 2004):

target: T1, p101/p110γ protein (PI3Kγ) (Homo sapiens, UniProt P48736); assay: PI3Kγ In Vitro Kinase Assay; format: biochemical; details: purified recombinant p101/p110γ with G protein β1/γ2 subunits; 20 μM ATP, 25 μM PIP2; 20 minutes at room temperature; radioactive PIP3 readout
T1 construct: HA; made in house; host or cells: Spodoptera frugiperda (Sf9) cells, baculovirus coinfection
T1 sequence (P48736 whole entry, species assumed): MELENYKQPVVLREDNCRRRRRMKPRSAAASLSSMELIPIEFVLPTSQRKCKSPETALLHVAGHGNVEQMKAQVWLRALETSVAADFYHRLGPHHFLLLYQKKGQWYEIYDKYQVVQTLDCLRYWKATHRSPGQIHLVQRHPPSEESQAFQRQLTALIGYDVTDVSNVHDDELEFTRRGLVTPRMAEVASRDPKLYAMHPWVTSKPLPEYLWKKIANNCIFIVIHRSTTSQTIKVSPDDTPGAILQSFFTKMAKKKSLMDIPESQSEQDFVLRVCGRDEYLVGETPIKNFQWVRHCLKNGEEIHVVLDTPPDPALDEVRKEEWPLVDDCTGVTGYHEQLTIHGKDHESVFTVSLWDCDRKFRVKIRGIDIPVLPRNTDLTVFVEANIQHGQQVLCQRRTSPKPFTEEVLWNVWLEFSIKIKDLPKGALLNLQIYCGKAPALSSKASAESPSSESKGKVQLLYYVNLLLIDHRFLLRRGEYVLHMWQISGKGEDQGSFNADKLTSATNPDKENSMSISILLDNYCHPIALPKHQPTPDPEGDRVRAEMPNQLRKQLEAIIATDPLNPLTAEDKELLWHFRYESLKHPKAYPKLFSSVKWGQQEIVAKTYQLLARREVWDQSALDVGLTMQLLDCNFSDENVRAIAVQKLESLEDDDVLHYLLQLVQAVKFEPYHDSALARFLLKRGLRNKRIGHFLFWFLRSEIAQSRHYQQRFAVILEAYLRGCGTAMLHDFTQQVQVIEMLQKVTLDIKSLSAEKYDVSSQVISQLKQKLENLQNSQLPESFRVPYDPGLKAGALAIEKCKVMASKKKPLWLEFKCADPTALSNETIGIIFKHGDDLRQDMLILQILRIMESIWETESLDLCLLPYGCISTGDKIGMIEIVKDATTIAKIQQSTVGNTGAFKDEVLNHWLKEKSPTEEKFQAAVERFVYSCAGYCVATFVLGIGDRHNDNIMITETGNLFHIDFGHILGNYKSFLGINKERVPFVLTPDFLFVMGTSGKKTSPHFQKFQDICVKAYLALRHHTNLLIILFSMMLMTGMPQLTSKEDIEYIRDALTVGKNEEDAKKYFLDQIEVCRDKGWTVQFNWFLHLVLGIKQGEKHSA
T1 sequence (Q8WYR1 whole entry partner, species assumed): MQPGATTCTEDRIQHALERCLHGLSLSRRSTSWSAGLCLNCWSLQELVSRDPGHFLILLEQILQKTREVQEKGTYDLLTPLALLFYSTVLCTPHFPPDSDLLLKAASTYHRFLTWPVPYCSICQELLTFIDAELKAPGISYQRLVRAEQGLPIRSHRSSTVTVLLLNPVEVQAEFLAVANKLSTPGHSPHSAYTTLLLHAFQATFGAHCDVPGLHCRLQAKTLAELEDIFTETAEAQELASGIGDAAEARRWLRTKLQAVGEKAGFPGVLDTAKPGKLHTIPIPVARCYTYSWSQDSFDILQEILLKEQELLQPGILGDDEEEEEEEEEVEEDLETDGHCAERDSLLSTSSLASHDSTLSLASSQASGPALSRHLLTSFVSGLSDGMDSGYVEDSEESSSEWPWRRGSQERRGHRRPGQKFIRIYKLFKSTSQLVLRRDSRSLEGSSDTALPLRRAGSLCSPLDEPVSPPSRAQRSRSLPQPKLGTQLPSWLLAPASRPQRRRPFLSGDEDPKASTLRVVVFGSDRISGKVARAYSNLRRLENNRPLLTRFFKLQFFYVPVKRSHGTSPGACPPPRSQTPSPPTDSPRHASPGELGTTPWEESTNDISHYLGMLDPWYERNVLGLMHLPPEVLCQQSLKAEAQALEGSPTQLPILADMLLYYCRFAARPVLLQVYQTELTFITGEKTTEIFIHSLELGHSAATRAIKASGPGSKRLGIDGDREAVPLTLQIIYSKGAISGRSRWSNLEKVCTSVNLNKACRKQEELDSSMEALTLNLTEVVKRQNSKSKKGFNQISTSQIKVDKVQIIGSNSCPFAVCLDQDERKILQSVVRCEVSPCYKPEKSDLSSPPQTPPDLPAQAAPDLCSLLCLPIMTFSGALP
Experimental: Spodtera frugiperda cells, grown in ESF921 media, were coinfected with baculovirus expressing a glu-tagged […] and baculovirus expressing an HA-tagged p110γ, at a 3:1 ratio of p110 baculovirus to p110γ baculovirus. Sf9 cells were grown to 1×10^7 total cells/mL in 10L bioreactors and harvested 48-72 hours post infection. Samples of infected cells were then tested for expression of p101/p110γ PI3 kinase by immunoprecipitation and Western Blot analysis methods (see below).
To purify PI3Kγ, 4 volumes of room temperature hypotonic lysis buffer (1 mM MgCl2, 1 mM DTT, 5 mM EGTA, 1 mM Pefabloc, 0.5 μM aprotinin, […], 2 μM pepstatin, 5 μM E64, pH 8) per gram of cell paste, was poured onto frozen cell pellets with stirring, then lysed in a nitrogen “bomb” at 400 psi (599HC T316, Parr Instrument Co, Moline, Ill.). NaCl was added to 150 mM, and sodium cholate was added to 1% and mixed for another 45 minutes. The lysates were clarified by centrifugation for 25 minutes at 14,000 rpm. The lysates were then loaded over anti-glu-linked Protein-G Sepaharose beads (Covance Research Products, Richmond, Calif.) using 20 mL resin/50 g cell paste. The column was washed with 15 volumes of wash buffer (1 mM DTT, 0.2 mM EGTA, 1 mM Pefabloc, 0.5 μM aprotinin, 5 μM leupeptin, 2 μM pepstatin, 5 μM E64, 150 mM NaCl, 1% sodium cholate, pH 8). PI3Kγ was eluted with 6 column volumes of wash buffer that contain 100 μg/mL of a peptide that competes for binding of the glu tag. The column fractions with the eluted protein (determined by taking OD280 readings) were collected and dialyzed in 0.2 mM EGTA, 1 mM DTT, 1 mM Pefabloc, 5 μM leupeptin, 0.5% sodium cholate, 150 mM NaCl, and 50% glycerol, pH 8. The fractions were stored at −80° C. until further use.
Spodtera frugiperda cells were coinfected with baculovirus expressing a glu-tagged G protein β1 and baculovirus expressing a […] at a 1:1 ratio of glu-tagged G protein β1 baculovirus to G protein β2 baculovirus. Sf9 cells are grown in 10 L bioreactors and harvested 48-72 hours post infection. Samples of infected cells were tested for G protein β1/β2 expression by Western Blot analysis, as described below. Cell lysates were homogenized and loaded onto a column of glu-tagged beads as in Biological Example 1 and competed off the column with a glu peptide as described in Biological Example 1.
The inhibitory properties of the compounds in Table 1 were assayed in an in vitro PI3K assay. In a 96-well polypropylene plate, each well was spotted with 2 μL of 50 times the desired final concentration of compound in DMSO. Purified recombinant p101/p110γ protein (0.03 μg; ˜2.7 nM) and G protein β1/γ2 subunits (0.09 μg; −57.7 nM) for each reaction was combined in the assay buffer (30 mM HEPES, 100 mM NaCl, 1 mM EGTA, and 1 mM DTT). ATP and [γ-^32P-ATP] (0.09 μCi) were added to this mixture so that the final ATP concentration in the reaction was 20 μM. Lipid micelles were formed by sonicating phosphatidylinositol-4,5-diphosphate (PIP2), phosphatidylethanolamine (PE), and Na-cholate in the assay buffer for 10 minutes, adding MgCL2 and incubating on ice for 20 minutes, for final concentrations of 25 μM PIP2, 300 μM PE, 0.02% Na-cholate, and 10 mM MgCl2 in the reaction. The reactions were started by adding equal volumes lipid and enzyme mixture in a total volume of 50 μL, allowed to run for 20 minutes at room temperature, and stopped with 100 μL 75 mM H3PO4. The lipid product was transferred to a glass fiber filter plate and washed with 75 mM H3PO4 several times. The presence of radioactive lipid product (PIP3) was measured by adding Wallac Optiphase mix to each well and counting in a Wallac 1450 Trilux plate reader (PerkinElmer Life Sciences Inc., Boston, Mass. 02118). The IC50 for each compound tested is reported in μM in Table 1: […]

Question: Which IC50 does the source give for `CC(=O)N1CCC(C(=O)N2CCOc3ccc(C=C4SC(=S)NC4=O)cc32)CC1` [Example 102, 5-[4-(1-Acetyl-piperidine-4-carbonyl)-3,4-dihydro-2H-1,4-benzoxazin-6-ylmethylene]-2-thioxo-thiazolidin-4-one] here?
Answer: Its IC50 is 37 nM.

Question: `O=C1NC(=S)SC1=Cc1ccc2c(c1)N(C(=O)CCC1CCCC1)CCO2` [Example 36, 5-[4-(3-Cyclopentyl-propionyl)-3,4-dihydro-2H-1,4-benzoxazin-6-ylmethylene]-2-thioxo-thiazolidin-4-one] was tested. Which IC50 did it give?
Answer: Its IC50 is 5 nM.

Question: `COc1cc(OC)cc(C(=O)N2CCOc3ccc(C=C4SC(=S)NC4=O)cc32)c1` [Example 14] was tested. Which IC50 did it give?
Answer: Its IC50 is 1130 nM.

Question: For `O=C1NC(=S)SC1=Cc1ccc2c(c1)N(C(=O)c1ccco1)CCCO2` [Example 123, 5-[9-(Furan-2-carbonyl)-6,7,8,9-tetrahydro-5-oxa-9-aza-benzocyclohepten-2-ylmethylene]-2-thioxo-thiazolidin-4-one], which IC50 is on record?
Answer: The IC50 was 3900 nM.

Question: How did the IC50 turn out when `O=C1NC(=S)SC1=Cc1ccc2c(c1)N(C(=O)c1cc(Cl)cc(Cl)c1)CCO2` [Example 63, 5-[4-(3,5-Dichloro-benzoyl)-3,4-dihydro-2H-1,4-benzoxazin-6-ylmethylene]-2-thioxo-thiazolidin-4-one] was run?
Answer: The IC50 was 145 nM.

Question: How did the IC50 turn out when `CC(C)(C)c1ccc(C(=O)N2CCOc3ccc(C=C4SC(=S)NC4=O)cc32)cc1` [Example 25, 5-[4-(4-tert-Butyl-benzoyl)-3,4-dihydro-2H-1,4-benzoxazin-6-ylmethylene]-2-thioxo-thiazolidin-4-one] was run?
Answer: Its IC50 is 245 nM.

Question: For `O=C1NC(=S)SC1=Cc1ccc2c(c1)N(C(=O)C1CC1)CCO2` [Example 32, 5-(4-Cyclopropanecarbonyl-3,4-dihydro-2H-1,4-benzoxazin-6-ylmethylene)-2-thioxo-thiazolidin-4-one], which IC50 is on record?
Answer: The IC50 was 4000 nM.

Question: Which IC50 does the source give for `O=C1NC(=S)SC1=Cc1ccc2c(c1)N(C(=O)Nc1ccc(Cl)cc1C(F)(F)F)CCCO2` [Example 120, 2-(4-Oxo-2-thioxo-thiazolidin-5-ylidenemethyl)-7,8-dihydro-6H-5-oxa-9-aza-benzocycloheptene-9-carboxylic acid (4-chloro-2-trifluoromethyl-phenyl)-amide] here?
Answer: Its IC50 is 1870 nM.

Question: For `O=C1NC(=S)SC1=Cc1ccc2c(c1)N(C(=O)c1sccc1Cl)CCO2` [Example 53, 5-[4-(3-Chloro-thiophene-2-carbonyl)-3,4-dihydro-2H-1,4-benzoxazin-6-ylmethylene]-2-thioxo-thiazolidin-4-one], which IC50 is on record?
Answer: Its IC50 is 265 nM.

Question: For `CC1CCCC(C(=O)N2CCOc3ccc(C=C4SC(=S)NC4=O)cc32)C1` (stereo not drawn) [Example 85, 5-[4-(3-Methyl-cyclohexanecarbonyl)-3,4-dihydro-2H-benzo[1,4]oxazin-6-ethylene]-2-thioxo-thiazolidin-4-one], which IC50 is on record?
Answer: Its IC50 is 12 nM.

Question: With `COc1cc(NC(=O)N2CCOc3ccc(C=C4SC(=S)NC4=O)cc32)cc(OC)c1` [Example 67, 6-(4-Oxo-2-thioxo-thiazolidin-5-ylidenemethyl)-2,3-dihydro-1,4-benzoxazine-4-carboxylic acid (3,5-dimethoxy-phenyl)-amide] as the compound, how does the IC50 read?
Answer: The IC50 was 39 nM.

Question: `O=C1NC(=S)SC1=Cc1ccc2c(c1)N(C(=O)COc1ccccc1)CCO2` [Example 38, 5-[4-(2-Phenoxy-acetyl)-3,4-dihydro-2H-1,4-benzoxazin-6-ylmethylene]-2-thioxo-thiazolidin-4-one] was tested. Which IC50 did it give?
Answer: The IC50 was 25 nM.

Question: With `O=C1NC(=S)SC1=Cc1ccc2c(c1)N(C(=O)c1cc(C(F)(F)F)cc(C(F)(F)F)c1)CCO2` [Example 45, 5-[4-(3,5-Bis-trifluoromethyl-benzoyl)-3,4-dihydro-2H-1,4-benzoxazin-6-ylmethylene]-2-thioxo-thiazolidin-4-one] as the compound, how does the IC50 read?
Answer: The IC50 was 760 nM.

Question: For “5-[9-(2-Thiophen-2-yl-acetyl)-6,7,8,9-tetrahydro-5-oxa-9-aza-benzocyclohepten-2-ylmethylene]-2-thioxo-thiazolidin-4-one [Example 112]”, which IC50 is on record?
Answer: Its IC50 is 1140 nM.

Question: How did the IC50 turn out when “4-[2-(4-Oxo-2-thioxo-thiazolidin-5-ylidenemethyl)-7,8-dihydro-6H-5-oxa-9-aza-benzocycloheptene-9-carbonyl]-benzonitrile [Example 121]” was run?
Answer: The IC50 was 2610 nM.

Question: Which IC50 does the source give for `O=C1NC(=S)SC1=Cc1ccc2c(c1)N(C(=O)c1ccc3c(c1)OCO3)CCO2` [Example 71, 5-[4-(1,3-Benzodioxole-5-carbonyl)-3,4-dihydro-2H-1,4-benzoxazin-6-ylmethylene]-2-thioxo-thiazolidin-4-one] here?
Answer: The IC50 was 935 nM.

Question: How did the IC50 turn out when `O=C1NC(=S)SC1=Cc1ccc2c(c1)N(C(=O)Nc1cccc(Cl)c1)CCO2` [Example 80, 6-(4-Oxo-2-thioxo-thiazolidin-5-ylidenemethyl)-2,3-dihydro-benzo[1,4]oxazine-4-carboxylic acid (3-chloro-phenyl)-amide] was run?
Answer: Its IC50 is 2 nM.

Question: `O=C1NC(=S)SC1=Cc1ccc2c(c1)N(C(=O)C1CCCCC1)CCO2` [Example 2, 5-[4-(1-Cyclohexyl-methanoyl)-3,4-dihydro-2H-benzo[1,4]oxazine-6-ylmethylene]-2-thioxo-thiazolidin-4-one] was tested. Which IC50 did it give?
Answer: Its IC50 is 21.7 nM.

Question: For “5-[9-(2-Benzyloxy-acetyl)-6,7,8,9-tetrahydro-5-oxa-9-aza-benzocyclohepten-2-ylmethylene]-2-thioxo-thiazolidin-4-one [Example 119]”, which IC50 is on record?
Answer: Its IC50 is 1650 nM.

Question: For `O=C1NC(=S)SC1=Cc1ccc2c(c1)N(C(=O)Nc1ccc(Cl)cc1)CCO2` [Example 77, 6-(4-Oxo-2-thioxo-thiazolidin-5-ylidenemethyl)-2,3-dihydro-benzo[1,4]oxazine-4-carboxylic acid (4-chloro-phenyl)-amide], which IC50 is on record?
Answer: Its IC50 is 2 nM.

Question: `O=C1NC(=S)SC1=Cc1ccc2c(c1)NCCCO2` [Example 103, 5-(6,7,8,9-Tetrahydro-5-oxa-9-aza-benzocyclohepten-2-ylmethylene)-2-thioxo-thiazolidin-4-one] was tested. Which IC50 did it give?
Answer: The IC50 was 445 nM.

Question: With `O=C1NC(=S)SC1=Cc1ccc2c(c1)N(C(=O)Oc1cccc3ccccc13)CCCO2` [Example 106, 2-(4-Oxo-2-thioxo-thiazolidin-5-ylidenemethyl)-7,8-dihydro-6H-5-oxa-9-aza-benzocycloheptene-9-carboxylic acid naphthalen-1-yl ester] as the compound, how does the IC50 read?
Answer: The IC50 was 400 nM.

Question: For `O=C1NC(=S)SC1=Cc1ccc2c(c1)N(C(=O)NCCc1ccccc1)CCO2` [Example 65, 6-(4-Oxo-2-thioxo-thiazolidin-5-ylidenemethyl)-2,3-dihydro-1,4-benzoxazine-4-carboxylic acid phenethyl-amide], which IC50 is on record?
Answer: Its IC50 is 17 nM.

Question: Which IC50 does the source give for `CCCC(=O)N1CCOc2ccc(C=C3SC(=S)NC3=O)cc21` [Example 94, 5-(4-Butyryl-3,4-dihydro-2H-1,4-benzoxazin-6-ylmethylene)-2-thioxo-thiazolidin-4-one] here?
Answer: Its IC50 is 10 nM.

Question: Which IC50 does the source give for `O=C1NC(=S)SC1=Cc1ccc2c(c1)N(C(=O)CCc1ccccc1)CCO2` [Example 70, 5-[4-(3-Phenyl-propionyl)-3,4-dihydro-2H-1,4-benzoxazin-6-ylmethylene]-2-thioxo-thiazolidin-4-one] here?
Answer: The IC50 was 31 nM.

Question: With “5-[9-(4-Hexyl-benzoyl)-6,7,8,9-tetrahydro-5-oxa-9-aza-benzocyclohepten-2-ylmethylene]-2-thioxo-thiazolidin-4-one [Example 126]” as the compound, how does the IC50 read?
Answer: Its IC50 is 4200 nM.

Question: `CCCCCCCCNC(=O)N1CCOc2ccc(C=C3SC(=S)NC3=O)cc21` [Example 62, 6-(4-Oxo-2-thioxo-thiazolidin-5-ylidenemethyl)-2,3-dihydro-1,4-benzoxazine-4-carboxylic acid octylamide] was tested. Which IC50 did it give?
Answer: The IC50 was 4000 nM.
